Laboratory results reported in ChEMBL document CHEMBL3352029, “Ring fusion strategy for the synthesis of anthra[2,3-d]oxazole-2-thione-5,10-dione homologues as DNA topoisomerase inhibitors and as antitumor agents” (Eur J Med Chem, 2014).

Experiments:
[1] = Cytotoxicity against human PC3 cells assessed as inhibition of cell growth after 48 hrs by sulforhodamine B assay; type: functional, cell-based; conditions: PC-3, 48 h
[2] = Cytotoxicity against human HCT15 cells assessed as cell growth level at 10 uM after 48 hrs by sulforhodamine B assay; type: functional, HCT-15
[3] = Cytotoxicity against human NCI-ADR-RES cells assessed as cell growth level at 10 uM after 48 hrs by sulforhodamine B assay; type: functional
[4] = system: SF-539; assay: Cytotoxicity against human SF539 cells assessed as cell growth level at 10 uM after 48 hrs by sulforhodamine B assay; type: functional
[5] = system: Malme-3M; assay: Cytotoxicity against human MALME-3M cells assessed as cell growth level at 10 uM after 48 hrs by sulforhodamine B assay; type: functional
[6] = system: SF-268; assay: Cytotoxicity against human SF268 cells assessed as cell growth level at 10 uM after 48 hrs by sulforhodamine B assay; type: functional
[7] = system: NCI-H322M; assay: Cytotoxicity against human NCI-H322M cells assessed as cell growth level at 10 uM after 48 hrs by sulforhodamine B assay; type: functional
[8] = system: ACHN; assay: Cytotoxicity against human ACHN cells assessed as cell growth level at 10 uM after 48 hrs by sulforhodamine B assay; type: functional
[9] = system: MCF7; assay: Cytotoxicity against human MCF7 cells assessed as cell growth level at 10 uM after 48 hrs by sulforhodamine B assay; type: functional
[10] = system: NCI-H460; assay: Cytotoxicity against human NCI-H460 cells assessed as cell growth level at 10 uM after 48 hrs by sulforhodamine B assay; type: functional
[11] = system: KM12; assay: Cytotoxicity against human KM12 cells assessed as cell growth level at 10 uM after 48 hrs by sulforhodamine B assay; type: functional
[12] = system: HOP-62; assay: Cytotoxicity against human HOP62 cells assessed as cell growth level at 10 uM after 48 hrs by sulforhodamine B assay; type: functional
[13] = system: HOP-92; assay: Cytotoxicity against human HOP92 cells assessed as cell growth level at 10 uM after 48 hrs by sulforhodamine B assay; type: functional
[14] = system: MDA-MB-468; assay: Cytotoxicity against human MDA-MB-468 cells assessed as cell growth level at 10 uM after 48 hrs by sulforhodamine B assay; type: functional
[15] = Cytotoxicity against human Hs 578T cells assessed as cell growth level at 10 uM after 48 hrs by sulforhodamine B assay; type: functional
[16] = system: COLO 205; assay: Cytotoxicity against human COLO205 cells assessed as cell growth level at 10 uM after 48 hrs by sulforhodamine B assay; type: functional
[17] = system: LOX IMVI; assay: Cytotoxicity against human LOXIMVI cells assessed as cell growth level at 10 uM after 48 hrs by sulforhodamine B assay; type: functional
[18] = system: MOLT-4; assay: Cytotoxicity against human MOLT4 cells assessed as cell growth level at 10 uM after 48 hrs by sulforhodamine B assay; type: functional
[19] = Cytotoxicity against human OVCAR3 cells assessed as cell growth level at 10 uM after 48 hrs by sulforhodamine B assay; type: functional, OVCAR-3
[20] = system: T47D; assay: Cytotoxicity against human T47D cells assessed as cell growth level at 10 uM after 48 hrs by sulforhodamine B assay; type: functional
[21] = system: HT-29; assay: Cytotoxicity against human HT-29 cells assessed as cell growth level at 10 uM after 48 hrs by sulforhodamine B assay; type: functional
[22] = system: RXF 393; assay: Cytotoxicity against human RXF393 cells assessed as cell growth level at 10 uM after 48 hrs by sulforhodamine B assay; type: functional
[23] = system: MDA-MB-435; assay: Cytotoxicity against human MDA-MB-435 cells assessed as cell growth level at 10 uM after 48 hrs by sulforhodamine B assay; type: functional
[24] = system: HL-60(TB); assay: Cytotoxicity against human HL-60(TB) cells assessed as cell growth level at 10 uM after 48 hrs by sulforhodamine B assay; type: functional
[25] = system: M14; assay: Cytotoxicity against human M14 cells assessed as cell growth level at 10 uM after 48 hrs by sulforhodamine B assay; type: functional
[26] = system: NCI-H226; assay: Cytotoxicity against human NCI-H226 cells assessed as cell growth level at 10 uM after 48 hrs by sulforhodamine B assay; type: functional
[27] = system: MDA-MB-231; assay: Cytotoxicity against human MDA-MB-231 cells assessed as cell growth level at 10 uM after 48 hrs by sulforhodamine B assay; type: functional
[28] = system: BT-549; assay: Cytotoxicity against human BT549 cells assessed as cell growth level at 10 uM after 48 hrs by sulforhodamine B assay; type: functional
[29] = system: IGROV-1; assay: Cytotoxicity against human IGROV1 cells assessed as cell growth level at 10 uM after 48 hrs by sulforhodamine B assay; type: functional
[30] = system: U-251; assay: Cytotoxicity against human U251 cells assessed as cell growth level at 10 uM after 48 hrs by sulforhodamine B assay; type: functional
[31] = system: CAKI-1; assay: Cytotoxicity against human CAKI-1 cells assessed as cell growth level at 10 uM after 48 hrs by sulforhodamine B assay; type: functional
[32] = system: A549; assay: Cytotoxicity against human A549/ATCC cells assessed as cell growth level at 10 uM after 48 hrs by sulforhodamine B assay; type: functional
[33] = Cytotoxicity against human UACC257 cells assessed as cell growth level at 10 uM after 48 hrs by sulforhodamine B assay; type: functional, UACC-257
[34] = system: SK-MEL-2; assay: Cytotoxicity against human SK-MEL-2 cells assessed as cell growth level at 10 uM after 48 hrs by sulforhodamine B assay; type: functional
[35] = system: SNB-75; assay: Cytotoxicity against human SNB75 cells assessed as cell growth level at 10 uM after 48 hrs by sulforhodamine B assay; type: functional
[36] = system: SN12C; assay: Cytotoxicity against human SN12C cells assessed as cell growth level at 10 uM after 48 hrs by sulforhodamine B assay; type: functional
[37] = system: HCC 2998; assay: Cytotoxicity against human HCC2998 cells assessed as cell growth level at 10 uM after 48 hrs by sulforhodamine B assay; type: functional
[38] = Cytotoxicity against human OVCAR8 cells assessed as cell growth level at 10 uM after 48 hrs by sulforhodamine B assay; type: functional, OVCAR-8
[39] = system: SNB-19; assay: Cytotoxicity against human SNB19 cells assessed as cell growth level at 10 uM after 48 hrs by sulforhodamine B assay; type: functional
[40] = system: 786-0; assay: Cytotoxicity against human 786-0 cells assessed as cell growth level at 10 uM after 48 hrs by sulforhodamine B assay; type: functional
[41] = system: SF-295; assay: Cytotoxicity against human SF295 cells assessed as cell growth level at 10 uM after 48 hrs by sulforhodamine B assay; type: functional
[42] = system: SK-MEL-5; assay: Cytotoxicity against human SK-MEL-5 cells assessed as cell growth level at 10 uM after 48 hrs by sulforhodamine B assay; type: functional
[43] = Cytotoxicity against human HCT116 cells assessed as cell growth level at 10 uM after 48 hrs by sulforhodamine B assay; type: functional, HCT-116
[44] = Cytotoxicity against human OVCAR5 cells assessed as cell growth level at 10 uM after 48 hrs by sulforhodamine B assay; type: functional, OVCAR-5
[45] = system: SK-MEL-28; assay: Cytotoxicity against human SK-MEL-28 cells assessed as cell growth level at 10 uM after 48 hrs by sulforhodamine B assay; type: functional
[46] = system: A498; assay: Cytotoxicity against human A498 cells assessed as cell growth level at 10 uM after 48 hrs by sulforhodamine B assay; type: functional
[47] = Cytotoxicity against human PC3 cells assessed as cell growth level at 10 uM after 48 hrs by sulforhodamine B assay; type: functional, PC-3
[48] = Cytotoxicity against human SKOV3 cells assessed as cell growth level at 10 uM after 48 hrs by sulforhodamine B assay; type: functional, SK-OV-3
[49] = system: DU-145; assay: Cytotoxicity against human DU145 cells assessed as cell growth level at 10 uM after 48 hrs by sulforhodamine B assay; type: functional
[50] = system: SW-620; assay: Cytotoxicity against human SW620 cells assessed as cell growth level at 10 uM after 48 hrs by sulforhodamine B assay; type: functional
[51] = system: NCI-H23; assay: Cytotoxicity against human NCI-H23 cells assessed as cell growth level at 10 uM after 48 hrs by sulforhodamine B assay; type: functional
[52] = system: RPMI-8226; assay: Cytotoxicity against human RPMI8226 cells assessed as cell growth level at 10 uM after 48 hrs by sulforhodamine B assay; type: functional
[53] = system: K562; assay: Cytotoxicity against human K562 cells assessed as cell growth level at 10 uM after 48 hrs by sulforhodamine B assay; type: functional
[54] = Cytotoxicity against human UACC62 cells assessed as cell growth level at 10 uM after 48 hrs by sulforhodamine B assay; type: functional, UACC-62
[55] = system: CCRF-CEM; assay: Cytotoxicity against human CCRF-CEM cells assessed as cell growth level at 10 uM after 48 hrs by sulforhodamine B assay; type: functional
[56] = Cytotoxicity against human UO31 cells assessed as cell growth level at 10 uM after 48 hrs by sulforhodamine B assay; type: functional, UO-31
[57] = system: NCI-H522; assay: Cytotoxicity against human NCI-H522 cells assessed as cell growth level at 10 uM after 48 hrs by sulforhodamine B assay; type: functional

CCN(CC)CC(=O)Nc1cc2c(cc1O)C(=O)c1ccccc1C2=O
IC50 [1]: 20.2 µM

CCCSc1nc2cc3c(cc2o1)C(=O)c1ccccc1C3=O
IC50 [1]: > 30 µM

O=C1c2ccccc2C(=O)c2cc3oc(SCCN4CCCCC4)nc3cc21
IC50 [1]: 21.8 µM

O=C1c2ccccc2C(=O)c2cc3oc(SCCN4CCOCC4)nc3cc21
IC50 [1]: > 30 µM

O=C1c2ccccc2C(=O)c2cc3oc(SCc4ccccc4[N+](=O)[O-])nc3cc21
IC50 [1]: > 30 µM

O=C(CCN1CCCC1)Nc1cc2c(cc1O)C(=O)c1ccccc1C2=O
Activity [2]: 97.11% | Activity [3]: 103.64% | Activity [4]: 98.8% | Activity [5]: 142.32% | Activity [6]: 97.79% | Activity [7]: 108.8% | Activity [8]: 82.72% | Activity [9]: 56.43% | Activity [10]: 101.03% | Activity [11]: 106.65% | Activity [12]: 98.3% | Activity [13]: 83.51% | Activity [14]: 93.65% | Activity [15]: 97.73% | Activity [16]: 118.26% | Activity [17]: 107.45% | Activity [18]: 114.86% | Activity [19]: 108.53% | Activity [20]: 74.5% | Activity [21]: 67.12% | Activity [22]: 103.62% | Activity [23]: 103.97% | Activity [24]: 103.96% | Activity [25]: 96.96% | Activity [26]: 89.38% | Activity [27]: 92.22% | Activity [28]: 96.56% | Activity [29]: 112.79% | Activity [30]: 95.72% | Activity [31]: 82.42% | Activity [32]: 98.4% | Activity [33]: 113% | Activity [34]: 102.06% | Activity [35]: 89.48% | Activity [36]: 100.6% | Activity [37]: 98.08% | Activity [38]: 100.18% | Activity [39]: 96.45% | Activity [40]: 99.72% | Activity [41]: 93.19% | Activity [42]: 102.47% | Activity [43]: 98.96% | Activity [44]: 100.56% | Activity [45]: 104.99% | Activity [46]: 86.98% | Activity [47]: 91.56% | Activity [48]: 104.33% | Activity [49]: 105.86% | Activity [50]: 106.36% | Activity [51]: 91.17% | Activity [52]: 86.61% | Activity [53]: 106.34% | Activity [54]: 94.37% | Activity [55]: 87.09% | Activity [56]: 79.74% | Activity [57]: 89.35% | IC50 [1]: > 30 µM

O=C1c2ccccc2C(=O)c2cc3oc(SCc4cccc([N+](=O)[O-])c4)nc3cc21
IC50 [1]: > 30 µM

O=C1c2ccccc2C(=O)c2cc3oc(SCc4ccccc4F)nc3cc21
IC50 [1]: > 30 µM

O=C1c2ccccc2C(=O)c2cc3oc(SCc4ccc([N+](=O)[O-])cc4)nc3cc21
IC50 [1]: > 30 µM

O=C1c2ccccc2C(=O)c2cc3oc(SCc4ccc(F)cc4F)nc3cc21
IC50 [1]: > 30 µM

O=C(CCCl)Nc1cc2c(cc1O)C(=O)c1ccccc1C2=O
IC50 [1]: 26.7 µM

CSc1nc2cc3c(cc2o1)C(=O)c1ccccc1C3=O
IC50 [1]: > 30 µM

O=C(CCl)Nc1cc2c(cc1O)C(=O)c1ccccc1C2=O
IC50 [1]: 23.4 µM

O=C(CN1CCCCC1)Nc1cc2c(cc1O)C(=O)c1ccccc1C2=O
IC50 [1]: 18.5 µM

O=C(CN1CCOCC1)Nc1cc2c(cc1O)C(=O)c1ccccc1C2=O
IC50 [1]: > 30 µM

O=C(CCN1CCOCC1)Nc1cc2c(cc1O)C(=O)c1ccccc1C2=O
IC50 [1]: > 30 µM

O=C1c2ccccc2C(=O)c2cc3oc(SCCc4ccccc4)nc3cc21
IC50 [1]: > 30 µM

O=C1COc2cc3c(cc2N1)C(=O)c1ccccc1C3=O
IC50 [1]: > 30 µM

O=C1c2ccccc2C(=O)c2cc3oc(SCc4ccccc4)nc3cc21
IC50 [1]: > 30 µM

CCCCSc1nc2cc3c(cc2o1)C(=O)c1ccccc1C3=O
IC50 [1]: > 30 µM

O=C(CN1CCCC1)Nc1cc2c(cc1O)C(=O)c1ccccc1C2=O
IC50 [1]: 26 µM

CCN(CC)CCC(=O)Nc1cc2c(cc1O)C(=O)c1ccccc1C2=O
IC50 [1]: 23.6 µM

O=C(CCN1CCCCC1)Nc1cc2c(cc1O)C(=O)c1ccccc1C2=O
IC50 [1]: > 30 µM
